# Measurements from PubChem BioAssay AID1259407 (Chemical Carcinogenesis Research Information System (CCRIS), 2018).
# Active and inactive are the calls of the source. How the calls were made is not given here.
# System: CCRIS mutagenicity, Ames/micronucleus/aberration tests
# Test: CCRIS mutagenicity studies
# [1] = Test System: AMES SALMONELLA TYPHIMURIUM, Strain/Indicator: TA98, Metabolic Activation: HAMSTER, LIVER, S-9, AROCLOR 1254, Method: STANDARD PLATE
# [2] = Test System: AMES SALMONELLA TYPHIMURIUM, Strain/Indicator: TA98, Metabolic Activation: NONE, Method: PREINCUBATION
# [3] = Test System: AMES SALMONELLA TYPHIMURIUM, Strain/Indicator: TA98, Metabolic Activation: NONE, Method: STANDARD PLATE
# [4] = Test System: AMES SALMONELLA TYPHIMURIUM, Strain/Indicator: TA98, Metabolic Activation: RAT, LIVER, S-9, AROCLOR 1254, Method: STANDARD PLATE
# [5] = Test System: AMES SALMONELLA TYPHIMURIUM, Strain/Indicator: TA100, Metabolic Activation: HAMSTER, LIVER, S-9, AROCLOR 1254, Method: STANDARD PLATE
# [6] = Test System: AMES SALMONELLA TYPHIMURIUM, Strain/Indicator: TA100, Metabolic Activation: NONE, Method: PREINCUBATION
# [7] = Test System: AMES SALMONELLA TYPHIMURIUM, Strain/Indicator: TA100, Metabolic Activation: NONE, Method: STANDARD PLATE
# [8] = Test System: AMES SALMONELLA TYPHIMURIUM, Strain/Indicator: TA100, Metabolic Activation: RAT, LIVER, S-9, AROCLOR 1254, Method: STANDARD PLATE
# [9] = Test System: AMES SALMONELLA TYPHIMURIUM, Strain/Indicator: TA1535, Metabolic Activation: HAMSTER, LIVER, S-9, AROCLOR 1254, Method: STANDARD PLATE
# [10] = Test System: AMES SALMONELLA TYPHIMURIUM, Strain/Indicator: TA1535, Metabolic Activation: NONE, Method: STANDARD PLATE
# [11] = Test System: AMES SALMONELLA TYPHIMURIUM, Strain/Indicator: TA1535, Metabolic Activation: RAT, LIVER, S-9, AROCLOR 1254, Method: STANDARD PLATE
# [12] = Test System: AMES SALMONELLA TYPHIMURIUM, Strain/Indicator: TA1537, Metabolic Activation: HAMSTER, LIVER, S-9, AROCLOR 1254, Method: STANDARD PLATE
# [13] = Test System: AMES SALMONELLA TYPHIMURIUM, Strain/Indicator: TA1537, Metabolic Activation: RAT, LIVER, S-9, AROCLOR 1254, Method: STANDARD PLATE
# [14] = Test System: AMES SALMONELLA TYPHIMURIUM, Strain/Indicator: TA1538, Metabolic Activation: HAMSTER, LIVER, S-9, AROCLOR 1254, Method: STANDARD PLATE
# [15] = Test System: AMES SALMONELLA TYPHIMURIUM, Strain/Indicator: TA1538, Metabolic Activation: NONE, Method: STANDARD PLATE
# [16] = Test System: AMES SALMONELLA TYPHIMURIUM, Strain/Indicator: TA1538, Metabolic Activation: RAT, LIVER, S-9, AROCLOR 1254, Method: STANDARD PLATE
# [17] = Test System: MOUSE LYMPHOMA, Strain/Indicator: L5178Y (TK+/TK-), Metabolic Activation: NONE, Method: SUSPENSION/PLATE
# [18] = Test System: MOUSE LYMPHOMA, Strain/Indicator: L5178Y (TK+/TK-), Metabolic Activation: RAT, LIVER, S-9, AROCLOR 1254, Method: SUSPENSION/PLATE
# [19] = Test System: AMES SALMONELLA TYPHIMURIUM, Strain/Indicator: TA1537, Metabolic Activation: NONE, Method: STANDARD PLATE
compound,measurement,setting,value
Nc1ccc(N=Nc2ccc3c(c2)C(=O)/C(=N/Nc2ccc(Nc4ccc(N/N=C5/C(=O)c6cc(N=Nc7ccc(N)cc7N)ccc6C=C5S(=O)(=O)O)cc4S(=O)(=O)O)cc2)C(S(=O)(=O)O)=C3)c(N)c1,mutagenic call,"Test System: AMES SALMONELLA TYPHIMURIUM, Strain/Indicator: TA98, Metabolic Activation: HAMSTER LIVER S-9, Method: PREINCUBATION",active; positive
same,mutagenic call,[1],active; positive
same,mutagenic call,"Test System: AMES SALMONELLA TYPHIMURIUM, Strain/Indicator: TA98, Metabolic Activation: HAMSTER, LIVER, S-9, Method: PREINCUBATION (PRIVAL METHOD)",active; positive
same,mutagenic call,[2],active; positive
same,mutagenic call,[3],active; positive
same,mutagenic call,"Test System: AMES SALMONELLA TYPHIMURIUM, Strain/Indicator: TA98, Metabolic Activation: RAT LIVER S-9, AROCLOR 1254, Method: PREINCUBATION",active; positive
same,mutagenic call,[4],active; positive
same,mutagenic call,"Test System: AMES SALMONELLA TYPHIMURIUM, Strain/Indicator: TA100, Metabolic Activation: HAMSTER LIVER S-9, Method: PREINCUBATION",active; positive
same,mutagenic call,[5],inactive; negative
same,mutagenic call,[6],inactive; negative
same,mutagenic call,[7],inactive; negative
same,mutagenic call,"Test System: AMES SALMONELLA TYPHIMURIUM, Strain/Indicator: TA100, Metabolic Activation: RAT LIVER S-9, AROCLOR 1254, Method: PREINCUBATION",inactive; negative
same,mutagenic call,[8],inactive; negative
same,mutagenic call,[9],active; positive
same,mutagenic call,[10],inactive; negative
same,mutagenic call,[11],inactive; negative
same,mutagenic call,[12],active; positive
same,mutagenic call,[13],active; positive
same,mutagenic call,[14],active; positive
same,mutagenic call,[15],active; positive
same,mutagenic call,[16],active; positive
same,mutagenic call,[17],inactive; negative
same,mutagenic call,[18],inactive; negative
c1ccc(OC2CO2)cc1 (stereo not given),mutagenic call,"Test System: AMES SALMONELLA TYPHIMURIUM, Strain/Indicator: TA98, Metabolic Activation: RAT LIVER MICROSOMES, Method: STANDARD PLATE",active; positive
same,mutagenic call,"Test System: AMES SALMONELLA TYPHIMURIUM, Strain/Indicator: TA1535, Metabolic Activation: RAT LIVER MICROSOMES, Method: STANDARD PLATE",active; positive
COc1cc([C@@H]2c3cc4c(cc3[C@@H](O[C@@H]3O[C@@H]5CO[C@@H](c6cccs6)O[C@H]5[C@H](O)[C@H]3O)[C@H]3COC(=O)[C@H]23)OCO4)cc(OC)c1O,mutagenic call,"Test System: MOUSE LYMPHOMA, Strain/Indicator: L5178Y (HPRT)/6-THIOGUANINE, Metabolic Activation: NONE, Method: FLUCTUATION TEST",inactive; negative
same,mutagenic call,"Test System: MOUSE LYMPHOMA, Strain/Indicator: L5178Y (TK+/TK-), Metabolic Activation: NONE",active; positive
same,mutagenic call,"Test System: MOUSE LYMPHOMA, Strain/Indicator: L5178Y (TK+/TK-), Metabolic Activation: NONE, Method: FLUCTUATION TEST",active; positive
same,mutagenic call,[17],active; positive
Cc1cc(O)c2c(c1)C(=O)c1c(c(O)cc(O)c1-c1c(O)cc(O)c3c1C(=O)c1cc(C)cc(O)c1C3=O)C2=O,mutagenic call,[3],inactive; negative
same,mutagenic call,[4],inactive; negative
same,mutagenic call,[7],inactive; negative
same,mutagenic call,[8],inactive; negative
same,mutagenic call,[19],inactive; negative
same,mutagenic call,[13],inactive; negative
C=CCc1ccc(O)cc1,mutagenic call,[1],inactive; negative
same,mutagenic call,[3],inactive; negative
same,mutagenic call,[4],inactive; negative
same,mutagenic call,[5],inactive; negative
same,mutagenic call,[7],inactive; negative
same,mutagenic call,[8],inactive; negative
same,mutagenic call,[9],inactive; negative
same,mutagenic call,[10],inactive; negative
same,mutagenic call,[11],inactive; negative
same,mutagenic call,[12],inactive; negative
same,mutagenic call,[19],inactive; negative
same,mutagenic call,[13],inactive; negative
same,mutagenic call,[14],inactive; negative
same,mutagenic call,[15],inactive; negative
same,mutagenic call,[16],inactive; negative
same,mutagenic call,[17],inactive; negative. reevaluation of results: negative
same,mutagenic call,[18],inactive; negative. reevaluation of results: negative
c1ccc(-c2ccccc2OCC2CO2)cc1 (stereo not given),mutagenic call,[7],active; positive
same,mutagenic call,[10],active; positive
COC(=O)c1cc2ccc3cccnc3c2[nH]1,mutagenic call,[3],inactive; negative
same,mutagenic call,"Test System: E. COLI, Strain/Indicator: WP2 TM9, Metabolic Activation: NONE, Method: STANDARD PLATE",inactive; negative
O=NN(c1ccc(C(=O)O)cc1)C1OC[C@@H](O)[C@@H](O)[C@@H]1O (stereo not given in full),mutagenic call,"Test System: AMES SALMONELLA TYPHIMURIUM, Strain/Indicator: TA100, Metabolic Activation: NONE, Method: LIQUID INCUBATION",active; positive
OC[C@H]1O[C@@H](n2cnc3c2ncn2ccnc32)[C@H](O)[C@@H]1O,mutagenic call,[6],inactive; negative
CC(C)CC(C)N (stereo not given),mutagenic call,"Test System: AMES SALMONELLA TYPHIMURIUM, Strain/Indicator: TA98, Metabolic Activation: HAMSTER, LIVER, S-9, AROCLOR 1254 (10%), Method: PREINCUBATION",inactive; negative
same,mutagenic call,[2],inactive; negative
same,mutagenic call,"Test System: AMES SALMONELLA TYPHIMURIUM, Strain/Indicator: TA98, Metabolic Activation: RAT, LIVER, S-9, AROCLOR 1254 (10%), Method: PREINCUBATION",inactive; negative
same,mutagenic call,"Test System: AMES SALMONELLA TYPHIMURIUM, Strain/Indicator: TA100, Metabolic Activation: HAMSTER, LIVER, S-9, AROCLOR 1254 (10%), Method: PREINCUBATION",inactive; negative
same,mutagenic call,[6],inactive; negative
same,mutagenic call,"Test System: AMES SALMONELLA TYPHIMURIUM, Strain/Indicator: TA100, Metabolic Activation: RAT, LIVER, S-9, AROCLOR 1254 (10%), Method: PREINCUBATION",inactive; negative
same,mutagenic call,"Test System: AMES SALMONELLA TYPHIMURIUM, Strain/Indicator: TA1535, Metabolic Activation: HAMSTER, LIVER, S-9, AROCLOR 1254 (10%), Method: PREINCUBATION",inactive; negative
same,mutagenic call,"Test System: AMES SALMONELLA TYPHIMURIUM, Strain/Indicator: TA1535, Metabolic Activation: NONE, Method: PREINCUBATION",inactive; negative
same,mutagenic call,"Test System: AMES SALMONELLA TYPHIMURIUM, Strain/Indicator: TA1535, Metabolic Activation: RAT, LIVER, S-9, AROCLOR 1254 (10%), Method: PREINCUBATION",inactive; negative
same,mutagenic call,"Test System: AMES SALMONELLA TYPHIMURIUM, Strain/Indicator: TA1537, Metabolic Activation: HAMSTER, LIVER, S-9, AROCLOR 1254 (10%), Method: PREINCUBATION",inactive; negative
same,mutagenic call,"Test System: AMES SALMONELLA TYPHIMURIUM, Strain/Indicator: TA1537, Metabolic Activation: NONE, Method: PREINCUBATION",inactive; negative
same,mutagenic call,"Test System: AMES SALMONELLA TYPHIMURIUM, Strain/Indicator: TA1537, Metabolic Activation: RAT, LIVER, S-9, AROCLOR 1254 (10%), Method: PREINCUBATION",inactive; negative
